Calls of active or inactive are those of the source.
Legend:
Genome polyprotein = Genome polyprotein (dengue virus type 2, UniProt P29990); experiment: flavivirus cap methylation enzyme inhibition – biochemical, confirmation dose response, primary screen (AID 588689); format: functional
Caspase-3 = target: T1, Caspase-3 (Homo sapiens, UniProt P42574); format: functional;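 note: Dose-response selectivity test against caspase-3 for candidate inhibitors of sentrin-specific proteases (SENPs)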
T1 sequence (P42574 whole entry): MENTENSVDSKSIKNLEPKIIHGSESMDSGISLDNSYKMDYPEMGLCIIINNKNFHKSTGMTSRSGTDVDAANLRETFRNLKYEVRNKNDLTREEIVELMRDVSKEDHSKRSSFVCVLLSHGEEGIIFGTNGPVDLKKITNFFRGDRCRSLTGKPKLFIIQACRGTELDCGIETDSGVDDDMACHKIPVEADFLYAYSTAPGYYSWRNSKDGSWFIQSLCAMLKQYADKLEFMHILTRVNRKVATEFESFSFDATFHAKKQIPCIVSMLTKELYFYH

[1] = target: T2, Sentrin-specific protease 6 (Homo sapiens, UniProt Q9GZR1); format: functional;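 note: Luminescence-based dose-response confirmatory assay of SENP6 inhibition, following up an ultra-high-throughput screen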
T2 sequence (Q9GZR1 whole entry): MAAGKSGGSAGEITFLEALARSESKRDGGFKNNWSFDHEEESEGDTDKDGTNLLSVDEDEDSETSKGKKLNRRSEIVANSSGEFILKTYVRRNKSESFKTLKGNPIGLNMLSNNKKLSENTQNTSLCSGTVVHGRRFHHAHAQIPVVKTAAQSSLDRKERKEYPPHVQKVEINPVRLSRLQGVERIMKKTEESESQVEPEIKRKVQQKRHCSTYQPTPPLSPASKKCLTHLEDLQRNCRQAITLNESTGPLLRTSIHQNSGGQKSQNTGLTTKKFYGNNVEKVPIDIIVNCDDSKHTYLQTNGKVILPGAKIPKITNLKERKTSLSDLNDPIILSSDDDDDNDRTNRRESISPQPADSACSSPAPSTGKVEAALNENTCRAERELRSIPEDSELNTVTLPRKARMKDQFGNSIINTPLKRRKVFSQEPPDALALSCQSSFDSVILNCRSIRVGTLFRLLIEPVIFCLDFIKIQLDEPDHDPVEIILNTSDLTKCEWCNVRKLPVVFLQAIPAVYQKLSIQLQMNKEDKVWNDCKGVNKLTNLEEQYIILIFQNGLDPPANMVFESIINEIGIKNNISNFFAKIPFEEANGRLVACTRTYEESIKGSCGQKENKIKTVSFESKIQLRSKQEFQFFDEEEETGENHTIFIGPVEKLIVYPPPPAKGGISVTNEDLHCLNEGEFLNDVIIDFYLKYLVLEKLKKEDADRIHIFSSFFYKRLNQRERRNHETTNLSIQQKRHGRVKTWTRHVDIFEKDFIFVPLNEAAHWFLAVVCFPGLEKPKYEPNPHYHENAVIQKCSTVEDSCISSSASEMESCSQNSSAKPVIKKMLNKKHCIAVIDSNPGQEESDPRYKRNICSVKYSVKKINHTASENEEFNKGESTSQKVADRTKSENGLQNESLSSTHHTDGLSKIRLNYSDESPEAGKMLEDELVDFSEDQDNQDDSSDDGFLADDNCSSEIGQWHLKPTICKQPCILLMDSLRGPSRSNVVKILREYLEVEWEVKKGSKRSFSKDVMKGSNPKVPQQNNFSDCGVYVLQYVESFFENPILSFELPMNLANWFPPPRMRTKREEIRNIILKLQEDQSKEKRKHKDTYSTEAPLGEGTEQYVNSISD

[2] = target: T3, Apoptotic protease-activating factor 1 (Homo sapiens, UniProt O14727); format: functional
T3 sequence (O14727 whole entry): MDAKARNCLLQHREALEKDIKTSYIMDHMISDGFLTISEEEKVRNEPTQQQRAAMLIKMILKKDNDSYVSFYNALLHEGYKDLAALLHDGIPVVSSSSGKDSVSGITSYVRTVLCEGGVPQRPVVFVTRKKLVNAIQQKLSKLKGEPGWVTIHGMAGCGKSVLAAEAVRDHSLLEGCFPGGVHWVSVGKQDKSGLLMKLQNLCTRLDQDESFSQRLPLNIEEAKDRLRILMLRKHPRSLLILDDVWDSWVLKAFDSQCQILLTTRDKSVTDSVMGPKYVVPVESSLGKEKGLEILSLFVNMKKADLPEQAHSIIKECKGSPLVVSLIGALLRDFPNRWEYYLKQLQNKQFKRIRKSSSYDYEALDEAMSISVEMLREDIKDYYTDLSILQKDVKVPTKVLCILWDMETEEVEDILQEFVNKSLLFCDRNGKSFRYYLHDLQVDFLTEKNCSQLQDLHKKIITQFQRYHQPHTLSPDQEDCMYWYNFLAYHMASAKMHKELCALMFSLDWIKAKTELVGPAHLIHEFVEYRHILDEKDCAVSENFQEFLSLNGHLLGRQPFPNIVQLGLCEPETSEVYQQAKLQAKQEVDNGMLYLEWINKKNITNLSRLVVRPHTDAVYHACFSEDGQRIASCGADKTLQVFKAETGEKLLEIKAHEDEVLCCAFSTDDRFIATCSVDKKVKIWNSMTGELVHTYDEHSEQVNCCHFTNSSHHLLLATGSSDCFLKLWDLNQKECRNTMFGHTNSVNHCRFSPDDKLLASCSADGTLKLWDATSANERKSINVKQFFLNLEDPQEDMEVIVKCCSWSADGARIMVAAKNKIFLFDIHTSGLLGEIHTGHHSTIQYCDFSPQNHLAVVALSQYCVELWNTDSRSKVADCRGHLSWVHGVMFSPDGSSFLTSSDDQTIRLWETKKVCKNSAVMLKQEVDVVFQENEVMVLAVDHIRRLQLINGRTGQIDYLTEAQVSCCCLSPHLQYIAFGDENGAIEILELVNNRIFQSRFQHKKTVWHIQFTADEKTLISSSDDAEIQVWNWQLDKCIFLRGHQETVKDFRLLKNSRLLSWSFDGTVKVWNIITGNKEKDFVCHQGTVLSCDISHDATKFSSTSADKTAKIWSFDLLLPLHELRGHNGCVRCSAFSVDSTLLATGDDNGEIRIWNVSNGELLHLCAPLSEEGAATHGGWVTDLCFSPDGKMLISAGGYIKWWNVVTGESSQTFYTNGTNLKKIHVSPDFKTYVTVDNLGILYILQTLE

[3] = viability loss in THP-1 monocytes – THP-1 cells, cytotoxicity control for Vif-APOBEC3G degradation inhibitor project, dose response (AID 1117359); format: functional; conditions: THP-1
[4] = NIH3T3 cell viability loss – ATP luminescence, mouse fibroblasts, counter-screen, dose response (AID 2010); format: functional, cell-based;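 note: cells exposed to compound for about 90 hours before reading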

Genome polyprotein, sequence (P29990 2492-3391 limits assumed): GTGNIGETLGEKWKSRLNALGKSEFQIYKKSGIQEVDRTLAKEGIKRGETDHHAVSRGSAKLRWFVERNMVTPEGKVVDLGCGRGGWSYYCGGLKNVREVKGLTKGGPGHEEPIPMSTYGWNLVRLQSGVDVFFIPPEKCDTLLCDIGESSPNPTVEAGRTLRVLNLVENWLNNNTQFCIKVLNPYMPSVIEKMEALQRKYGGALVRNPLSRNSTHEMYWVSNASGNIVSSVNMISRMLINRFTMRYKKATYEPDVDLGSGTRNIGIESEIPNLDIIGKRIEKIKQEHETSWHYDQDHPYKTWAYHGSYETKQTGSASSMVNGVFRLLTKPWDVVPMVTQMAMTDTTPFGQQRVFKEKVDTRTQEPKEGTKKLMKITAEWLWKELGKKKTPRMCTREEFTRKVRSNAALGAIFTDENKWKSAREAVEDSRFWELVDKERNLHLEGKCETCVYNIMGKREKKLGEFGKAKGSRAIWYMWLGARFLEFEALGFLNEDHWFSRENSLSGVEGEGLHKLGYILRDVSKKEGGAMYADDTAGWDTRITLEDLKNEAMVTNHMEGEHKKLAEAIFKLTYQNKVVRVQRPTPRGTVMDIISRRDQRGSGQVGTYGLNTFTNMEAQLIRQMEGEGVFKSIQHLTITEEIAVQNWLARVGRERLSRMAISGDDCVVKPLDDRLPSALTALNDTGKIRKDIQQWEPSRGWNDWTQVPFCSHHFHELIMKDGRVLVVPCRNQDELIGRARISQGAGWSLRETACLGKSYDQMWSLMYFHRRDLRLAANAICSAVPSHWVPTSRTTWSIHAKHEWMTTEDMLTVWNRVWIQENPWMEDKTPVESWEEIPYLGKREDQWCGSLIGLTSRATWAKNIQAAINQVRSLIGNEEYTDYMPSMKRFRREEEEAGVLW

Row | SMILES | IC50 (Genome polyprotein) | IC50 (Caspase-3) | IC50 [1] | IC50 [2] | CC50 [3] | EC50 [4]
1 | CCc1nnc(NS(=O)(=O)c2ccc(NC(=S)NC(=O)/C=C/c3ccc(C(C)C)cc3)cc2)s1 | 50 µM (active) |  |  |  |  | 
2 | O=C(/C=C/c1ccco1)Nc1ccc(Oc2ccccc2)cc1 |  | 20.5 µM (active) | 5.23 µM (active) |  |  | 
3 | COc1ccc(S(=O)(=O)Nc2cc(SCC(=O)O)c(O)c3ccccc23)cc1 | 7.22 µM (active) | 11.2 µM (active) | 3.81 µM (active) | 31.8 µM (active) | 5.84 µM (active) | 
4 | O=C1C(Nc2ccc(O)cc2)=C/C(=N/S(=O)(=O)c2cccs2)c2ccccc21 |  |  |  |  |  | 0.486 µM (active)
5 | COC(=O)C(O)(c1c(C)[nH]n(-c2ccccc2)c1=O)C(F)(F)F (configuration not stated) |  |  |  | 14.6 µM (active) |  | 
6 | CC1CC(=O)c2c(cc3c(-c4c(O)cc(O)c5c(O)c6c(cc45)OC(C)CC6=O)c(O)cc(O)c3c2O)O1 (configuration not stated) [CEPHALOCHROMIN] |  |  |  |  | 3.08 µM (active) | 8.42 µM (active)

Reference: ChEMBL document CHEMBL1201862, “PubChem BioAssay data set” (2004)
